Source: US4606911A, “Pharmaceutical composition for the prevention of dental caries” (Rohto Pharmaceutical Co. Ltd., priority 1984, dated 1986)
In brackets after ≈: the same amount, converted by molar mass.

Legend:
[1] = tested on: Streptococcus salivarius ATCC 9222; test: Antibacterial activity (MIC, growth in BHI medium); format: cell-based; parameters: key to Antibacterial activity (growth): -: grow; ±: slightly grow; +: not grow
Protocol: (§1) To a test tube was charged 3.8 ml of Brain Heart Infusion (BHI) medium, and 100 μl of a sample solution containing oleanolic, ursolic or glycyrrhetic acid and 100 μl of pre-incubated culture of bacterium selected from those listed below were added thereto. The mixture was incubated at 37° C. and then allowed to stand over night. The extent of the growth of bacterium was observed after two or five days. The MIC value was determined for each sample and summarized in Table 2. |Streptococcus salivarius ATCC 9222

[2] = tested on: Staphylococcus aureus 209P; test: Antibacterial activity (MIC, growth in BHI medium); format: cell-based; parameters: key to Antibacterial activity (growth): -: grow; ±: slightly grow; +: not grow
Protocol: as §1, with “|Staphylococcus aureus […]” for “|Streptococcus salivarius ATCC 9222”

CC1(C)CC[C@]2(C(=O)O)CC[C@]3(C)C(=CC[C@@H]4[C@@]5(C)CC[C@H](O)C(C)(C)[C@@H]5CC[C@]43C)[C@@H]2C1 [Oleanolic acid]
Antibacterial activity (growth) ([1]; 10 μg/ml): -
Antibacterial activity (growth) ([1]; 25 μg/ml): -
Antibacterial activity (growth) ([1]; 50 μg/ml): -
Antibacterial activity (growth) ([1]; 100 μg/ml): -
Antibacterial activity (growth) ([1]; 200 μg/ml): ±
Antibacterial activity (growth) ([1]; 400 μg/ml): +
MIC ([1]; ATCC9222, Streptococcus salivarius, BHI, 37° C., read-out: MIC (minimum inhibitory concentration)): 400 µg/mL (≈ 876 µM)
Antibacterial activity (growth) ([2]; 10 μg/ml): -
Antibacterial activity (growth) ([2]; 25 μg/ml): -
Antibacterial activity (growth) ([2]; 50 μg/ml): -
Antibacterial activity (growth) ([2]; 100 μg/ml): -
Antibacterial activity (growth) ([2]; 200 μg/ml): -
Antibacterial activity (growth) ([2]; 400 μg/ml): -
MIC ([2]; 209P, Staphylococcus aureus, BHI, 37° C., read-out: MIC (minimum inhibitory concentration)): > 400 µg/mL
